Where a name gives a salt, the structure may show the parent alone.
Tests used:
[1] = target: High affinity cAMP-specific and IBMX-insensitive 3',5'-cyclic phosphodiesterase 8A (Homo sapiens, UniProt O60658); assay: Inhibition of full-length recombinant human PDE8A using [3H]-cAMP as substrate incubated for 10 mins by SPA assay
[2] = target: High affinity 3',5'-cyclic-AMP phosphodiesterase 7A (Homo sapiens, UniProt Q13946); assay: Inhibition of his-tagged recombinant human PDE7A catalytic domain (S130 to S482 residues) expressed in Escherichia coli BL21(DE3) using [3H]-cAMP as substrate incubated for 10 mins by SPA assay
[3] = target: Dual 3',5'-cyclic-AMP and -GMP phosphodiesterase 11A (Homo sapiens, UniProt Q9HCR9); assay: Inhibition of full-length recombinant human PDE11A using [3H]-cAMP as substrate incubated for 10 mins by SPA assay
[4] = target: T1, Dual specificity calcium/calmodulin-dependent 3',5'-cyclic nucleotide phosphodiesterase 1A (Homo sapiens, UniProt P54750); assay: Inhibition of full-length recombinant human PDE1A using [3H]-cGMP as substrate incubated for 10 mins by SPA assay
[5] = target: cAMP and cAMP-inhibited cGMP 3',5'-cyclic phosphodiesterase 10A (Homo sapiens, UniProt Q9Y233); assay: Inhibition of his-tagged recombinant human PDE10A catalytic domain (S439 to A766 residues) expressed in Escherichia coli BL21(DE3) using [3H]-cAMP as substrate incubated for 10 mins by SPA assay
[6] = target: T2, cGMP-dependent 3',5'-cyclic phosphodiesterase (Homo sapiens, UniProt O00408); assay: Inhibition of full-length recombinant human PDE2A using [3H]-cGMP as substrate incubated for 10 mins by SPA assay
[7] = target: 3',5'-cyclic-AMP phosphodiesterase 4D (Homo sapiens, UniProt Q08499); assay: Inhibition of his-tagged recombinant human PDE4D catalytic domain (T86 to S413 residues) expressed in Escherichia coli BL21(DE3) using [3H]-cAMP as substrate incubated for 10 mins by SPA assay
[8] = target: High affinity cGMP-specific 3',5'-cyclic phosphodiesterase 9A (Homo sapiens, UniProt O76083); assay: Inhibition of his-tagged recombinant human PDE9A catalytic domain (P181 to K506 residues) expressed in Escherichia coli BL21(DE3) using [3H]-cGMP as substrate incubated for 10 mins by SPA assay
[9] = target: cGMP-specific 3',5'-cyclic phosphodiesterase (Homo sapiens, UniProt O76074); assay: Inhibition of his-tagged recombinant human PDE5A catalytic domain (E535 to Q860 residues) expressed in Escherichia coli BL21(DE3) using [3H]-cGMP as substrate incubated for 10 mins by SPA assay
[10] = target: cGMP-inhibited 3',5'-cyclic phosphodiesterase 3A (Homo sapiens, UniProt Q14432); assay: Inhibition of full-length recombinant human PDE3A using [3H]-cGMP as substrate incubated for 10 mins by SPA assay
[11] = target: Cone cGMP-specific 3',5'-cyclic phosphodiesterase subunit alpha' (Homo sapiens, UniProt P51160); assay: Inhibition of full-length recombinant human PDE6C using [3H]-cGMP as substrate incubated for 10 mins by SPA assay
Homo sapiens = species: Homo sapiens; assay: Selectivity index, ratio of IC50 for full-length recombinant human PDE6C using [3H]-cGMP as substrate to IC50 for his-tagged recombinant human PDE4D catalytic domain (T86 to S413 residues) expressed in Escherichia coli BL21(DE3) using [3H]-cAMP as substrate
[12] = target: T1, Dual specificity calcium/calmodulin-dependent 3',5'-cyclic nucleotide phosphodiesterase 1A; assay: Inhibition of full-length recombinant human PDE1A using [3H]-cGMP as substrate at 1 uM incubated for 10 mins by SPA assay relative to control
[13] = target: T2, cGMP-dependent 3',5'-cyclic phosphodiesterase; assay: Inhibition of full-length recombinant human PDE2A using [3H]-cGMP as substrate at 1 uM incubated for 10 mins by SPA assay relative to control

Sequence of 3',5'-cyclic-AMP phosphodiesterase 4D (Q08499 whole entry, the tested form may be a part): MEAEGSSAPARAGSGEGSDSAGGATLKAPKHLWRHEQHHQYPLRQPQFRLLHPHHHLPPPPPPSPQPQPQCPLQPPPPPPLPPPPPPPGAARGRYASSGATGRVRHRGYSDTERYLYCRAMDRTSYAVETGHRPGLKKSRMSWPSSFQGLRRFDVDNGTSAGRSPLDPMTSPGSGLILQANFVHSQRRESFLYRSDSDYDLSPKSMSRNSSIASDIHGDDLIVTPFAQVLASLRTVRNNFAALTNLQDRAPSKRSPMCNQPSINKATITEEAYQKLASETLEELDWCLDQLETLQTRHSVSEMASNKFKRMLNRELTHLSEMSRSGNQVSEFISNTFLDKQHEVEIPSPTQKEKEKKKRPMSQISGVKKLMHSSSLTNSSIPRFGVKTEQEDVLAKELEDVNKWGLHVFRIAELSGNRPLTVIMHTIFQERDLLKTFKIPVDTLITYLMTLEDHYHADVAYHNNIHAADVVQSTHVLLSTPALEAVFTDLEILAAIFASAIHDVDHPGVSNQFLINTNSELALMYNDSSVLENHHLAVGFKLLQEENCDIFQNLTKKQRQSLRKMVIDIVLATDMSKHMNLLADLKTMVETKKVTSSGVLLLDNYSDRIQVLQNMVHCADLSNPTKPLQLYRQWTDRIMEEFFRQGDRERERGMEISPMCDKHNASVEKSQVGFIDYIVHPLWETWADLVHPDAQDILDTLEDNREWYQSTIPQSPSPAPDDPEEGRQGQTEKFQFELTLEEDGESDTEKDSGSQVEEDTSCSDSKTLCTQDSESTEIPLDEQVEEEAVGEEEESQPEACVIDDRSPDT
Sequence of High affinity cGMP-specific 3',5'-cyclic phosphodiesterase 9A (O76083 whole entry, the tested form may be a part): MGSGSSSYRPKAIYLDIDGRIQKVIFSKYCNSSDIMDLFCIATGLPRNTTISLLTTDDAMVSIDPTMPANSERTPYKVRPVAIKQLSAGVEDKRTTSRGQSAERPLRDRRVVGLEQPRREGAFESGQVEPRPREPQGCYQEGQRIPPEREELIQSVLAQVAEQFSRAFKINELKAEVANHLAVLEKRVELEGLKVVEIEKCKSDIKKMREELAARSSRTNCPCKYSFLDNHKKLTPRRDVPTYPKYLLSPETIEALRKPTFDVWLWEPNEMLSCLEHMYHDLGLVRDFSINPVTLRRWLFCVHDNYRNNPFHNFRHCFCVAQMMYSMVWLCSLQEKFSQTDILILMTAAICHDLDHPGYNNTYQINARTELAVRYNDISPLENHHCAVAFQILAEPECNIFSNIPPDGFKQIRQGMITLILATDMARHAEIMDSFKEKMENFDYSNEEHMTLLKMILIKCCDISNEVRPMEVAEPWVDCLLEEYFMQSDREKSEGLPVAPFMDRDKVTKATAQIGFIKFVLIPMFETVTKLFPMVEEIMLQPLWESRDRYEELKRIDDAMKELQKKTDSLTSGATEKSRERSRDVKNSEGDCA
Sequence of High affinity cAMP-specific and IBMX-insensitive 3',5'-cyclic phosphodiesterase 8A (O60658 whole entry, the tested form may be a part): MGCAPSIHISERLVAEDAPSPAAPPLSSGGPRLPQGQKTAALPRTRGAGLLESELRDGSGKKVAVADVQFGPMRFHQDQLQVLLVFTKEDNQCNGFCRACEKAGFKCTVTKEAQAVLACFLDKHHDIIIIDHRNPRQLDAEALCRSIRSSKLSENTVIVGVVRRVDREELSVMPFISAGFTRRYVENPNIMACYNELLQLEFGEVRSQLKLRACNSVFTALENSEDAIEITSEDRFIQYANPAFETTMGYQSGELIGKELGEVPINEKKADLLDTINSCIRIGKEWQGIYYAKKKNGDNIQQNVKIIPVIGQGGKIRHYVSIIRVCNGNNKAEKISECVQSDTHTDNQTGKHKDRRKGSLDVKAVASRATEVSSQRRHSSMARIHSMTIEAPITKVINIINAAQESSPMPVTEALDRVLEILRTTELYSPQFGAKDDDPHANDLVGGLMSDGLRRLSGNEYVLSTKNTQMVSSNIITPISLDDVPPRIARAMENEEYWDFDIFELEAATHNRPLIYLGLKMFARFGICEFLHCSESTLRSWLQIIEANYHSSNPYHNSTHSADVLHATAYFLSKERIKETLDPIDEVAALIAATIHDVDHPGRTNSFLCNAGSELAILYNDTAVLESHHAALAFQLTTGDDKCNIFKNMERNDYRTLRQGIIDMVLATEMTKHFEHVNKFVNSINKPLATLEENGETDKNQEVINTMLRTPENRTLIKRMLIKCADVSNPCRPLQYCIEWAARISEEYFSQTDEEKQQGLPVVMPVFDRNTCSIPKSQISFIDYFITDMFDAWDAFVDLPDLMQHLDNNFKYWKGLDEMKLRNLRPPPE
Sequence of High affinity 3',5'-cyclic-AMP phosphodiesterase 7A (Q13946 whole entry, the tested form may be a part): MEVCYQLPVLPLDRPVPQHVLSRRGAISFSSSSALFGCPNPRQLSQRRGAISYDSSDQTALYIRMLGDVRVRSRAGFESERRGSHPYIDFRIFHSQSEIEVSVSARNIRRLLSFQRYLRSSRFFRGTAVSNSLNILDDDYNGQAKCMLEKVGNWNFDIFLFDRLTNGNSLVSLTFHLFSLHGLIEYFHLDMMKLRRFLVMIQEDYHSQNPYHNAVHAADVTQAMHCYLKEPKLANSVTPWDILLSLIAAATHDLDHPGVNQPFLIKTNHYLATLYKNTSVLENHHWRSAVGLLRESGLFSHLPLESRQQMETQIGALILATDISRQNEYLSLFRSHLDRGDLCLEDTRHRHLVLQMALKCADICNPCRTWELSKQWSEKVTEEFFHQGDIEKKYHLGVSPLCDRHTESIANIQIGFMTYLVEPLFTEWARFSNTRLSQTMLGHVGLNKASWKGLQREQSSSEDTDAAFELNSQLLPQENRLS
Sequence of cGMP-inhibited 3',5'-cyclic phosphodiesterase 3A (Q14432 whole entry): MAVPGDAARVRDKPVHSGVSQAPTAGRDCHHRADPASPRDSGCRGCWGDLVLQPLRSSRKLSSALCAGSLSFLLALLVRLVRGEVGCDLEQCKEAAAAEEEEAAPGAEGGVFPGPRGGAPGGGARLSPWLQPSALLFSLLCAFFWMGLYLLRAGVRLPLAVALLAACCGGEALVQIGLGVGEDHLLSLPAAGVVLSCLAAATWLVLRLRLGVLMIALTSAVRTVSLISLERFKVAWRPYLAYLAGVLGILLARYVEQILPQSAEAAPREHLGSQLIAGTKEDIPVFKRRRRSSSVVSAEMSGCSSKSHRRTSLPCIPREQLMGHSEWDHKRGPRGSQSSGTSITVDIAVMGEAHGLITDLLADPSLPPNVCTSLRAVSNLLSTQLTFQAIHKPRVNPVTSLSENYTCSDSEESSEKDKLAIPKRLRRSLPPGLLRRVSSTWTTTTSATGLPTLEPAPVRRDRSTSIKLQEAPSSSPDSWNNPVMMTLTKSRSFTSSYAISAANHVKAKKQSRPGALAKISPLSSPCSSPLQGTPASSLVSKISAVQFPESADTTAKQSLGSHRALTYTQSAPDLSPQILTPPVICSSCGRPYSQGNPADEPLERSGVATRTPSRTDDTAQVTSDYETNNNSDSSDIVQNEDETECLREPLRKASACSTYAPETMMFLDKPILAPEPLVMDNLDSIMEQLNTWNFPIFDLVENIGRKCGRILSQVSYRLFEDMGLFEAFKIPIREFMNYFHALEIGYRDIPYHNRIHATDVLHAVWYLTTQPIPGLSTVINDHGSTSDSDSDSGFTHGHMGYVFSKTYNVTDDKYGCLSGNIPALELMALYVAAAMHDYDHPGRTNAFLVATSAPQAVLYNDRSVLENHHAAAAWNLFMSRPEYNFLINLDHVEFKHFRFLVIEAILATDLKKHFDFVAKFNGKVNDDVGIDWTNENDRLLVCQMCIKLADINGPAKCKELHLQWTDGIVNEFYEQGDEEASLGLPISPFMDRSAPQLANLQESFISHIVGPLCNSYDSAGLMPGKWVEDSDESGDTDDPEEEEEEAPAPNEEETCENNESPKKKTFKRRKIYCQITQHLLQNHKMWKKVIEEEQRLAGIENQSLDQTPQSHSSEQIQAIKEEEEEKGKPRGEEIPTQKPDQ
Sequence of Dual 3',5'-cyclic-AMP and -GMP phosphodiesterase 11A (Q9HCR9 whole entry): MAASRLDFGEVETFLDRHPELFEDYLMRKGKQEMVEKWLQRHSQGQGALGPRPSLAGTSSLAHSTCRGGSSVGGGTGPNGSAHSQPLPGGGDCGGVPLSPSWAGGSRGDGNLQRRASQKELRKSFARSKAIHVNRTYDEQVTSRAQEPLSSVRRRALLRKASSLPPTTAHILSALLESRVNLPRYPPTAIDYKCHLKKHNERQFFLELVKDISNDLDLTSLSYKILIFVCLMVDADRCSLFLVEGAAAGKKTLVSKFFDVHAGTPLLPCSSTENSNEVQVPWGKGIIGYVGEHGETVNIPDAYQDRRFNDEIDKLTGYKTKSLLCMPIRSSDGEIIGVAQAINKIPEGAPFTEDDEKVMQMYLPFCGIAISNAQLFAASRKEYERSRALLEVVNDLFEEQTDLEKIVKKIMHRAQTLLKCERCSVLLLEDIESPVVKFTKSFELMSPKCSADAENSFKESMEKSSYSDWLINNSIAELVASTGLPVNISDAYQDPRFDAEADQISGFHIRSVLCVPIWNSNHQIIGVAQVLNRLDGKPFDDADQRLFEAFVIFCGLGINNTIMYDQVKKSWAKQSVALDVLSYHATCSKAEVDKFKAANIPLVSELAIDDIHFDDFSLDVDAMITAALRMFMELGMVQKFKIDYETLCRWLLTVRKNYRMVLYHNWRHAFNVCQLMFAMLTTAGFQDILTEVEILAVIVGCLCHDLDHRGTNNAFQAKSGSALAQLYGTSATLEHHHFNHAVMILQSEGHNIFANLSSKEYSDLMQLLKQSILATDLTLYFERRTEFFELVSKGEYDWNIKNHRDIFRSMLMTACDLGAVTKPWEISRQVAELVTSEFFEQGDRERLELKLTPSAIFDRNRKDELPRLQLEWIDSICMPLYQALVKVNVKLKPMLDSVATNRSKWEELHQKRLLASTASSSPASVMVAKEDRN

IC50 [1] | IC50 [2] | IC50 [3] | IC50 [5] | IC50 [7] | IC50 [8] | IC50 [9] | IC50 [10] | Compound | also measured
> 10000 nM | > 10000 nM | > 1000 nM | 1290 nM | 420 nM | > 10000 nM | 230 nM | > 10000 nM | COc1ccc(CNc2nc(N(CCO)CCO)nc3c2ncn3C(C)C)cc1 | IC50 [4]: > 1000 nM; IC50 [6]: > 1000 nM
> 10000 nM | > 10000 nM | > 10000 nM | > 10000 nM | 1780 nM | > 10000 nM | 40 nM | > 10000 nM | COc1ccc(CNc2nc(N(CCO)CCO)nc3c2[nH]c(=O)n3C(C)C)cc1 | IC50 [11]: 90 nM; IC50 [4]: > 10000 nM; Ratio IC50 (Homo sapiens): 2; IC50 [6]: > 1000 nM
 |  |  |  | 410 nM |  |  |  | CCOc1ccc(Cc2nccc3cc(OCC)c(OCC)cc23)cc1OCC [ETHAVERINE HYDROCHLORIDE] | 
 |  |  |  | 1770 nM |  |  |  | COc1ncc(-c2ccc3nccc(-c4ccnnc4)c3c2)cc1NS(=O)(=O)c1ccc(F)cc1F [OMIPALISIB] | 
 |  |  |  | 1000 nM |  |  |  | O=C(O)c1ccc2c(c1)nc(Nc1cccc(Cl)c1)c1ccncc12 [SILMITASERTIB] | 
 |  |  |  | 1740 nM |  |  |  | Cn1cc(-c2ccncc2)c(-c2ccc(OCc3ccc4ccccc4n3)cc2)n1 [MARDEPODECT] | 
> 10000 nM | > 10000 nM | > 10000 nM | > 1000 nM | 2250 nM | > 10000 nM | 120 nM | > 1000 nM | COc1ccc(CNc2nc(N(CCO)CCO)nc3c2cnn3C(C)C)cc1 | IC50 [11]: 160 nM; inhibition [12]: 59.6%; Ratio IC50 (Homo sapiens): 1; inhibition [13]: 67.9%
 |  |  |  | 2460 nM |  |  |  | CCOc1ccn(-c2ccc(F)cc2)c(=O)c1C(=O)Nc1ccc(Oc2ccnc(N)c2Cl)c(F)c1 [BMS-777607] | 

Compound | IC50 [1] | IC50 [2] | IC50 [3] | IC50 [5] | IC50 [7] | IC50 [8] | IC50 [9] | IC50 [10] | also measured
COc1ccc2c(c1)CC[C@H]1[C@H]3CC[C@H](NCCCCCCN4C(=O)C=CC4=O)[C@@]3(C)CC[C@@H]21 |  |  |  |  | 940 nM |  |  |  | 
